Results reported in patent publication US20140121370A1, “NOVEL METHOD FOR PREPARING CEFMENOXIME HYDROCHLORIDE COMPOUND” (Hainan Lingkang Pharmaceutical Co., Ltd., priority 2011, published 2014).
Structures can show the parent of a compound that is named as a salt.

Experiment: Solubility of Cefmenoxime hydrochloride in organic solvents
Format: physicochemical
From the text: According to the instant invention, after the treatment of step 1), these impurities can be separated from Cefmenoxime hydrochloride.
Treating Cefmenoxime hydrochloride crude directly with a good-poor solvent precipitation method can not achieve the desired purity.

- solubility in acetone (solvent acetone): almost insoluble
- solubility in ethanol (solvent ethanol): almost insoluble
- solubility in ethyl acetate (solvent ethyl acetate): almost insoluble
- solubility in formamide (solvent formamide): soluble
- solubility in methanol (solvent methanol): slightly soluble
Compound: CO/N=C(\C(=O)N[C@@H]1C(=O)N2C(C(=O)O)=C(CSc3nnnn3C)CS[C@H]12)c1csc(N)n1 [Cefmenoxime hydrochloride, (6R,7R)-7-[(Z)-2-(2-amino-thiazol-4-yl)-2-methoxyiminoacetylamino]-3-[[(1-methyl-1H-tetrazol-5-yl)-sulfanyl]methyl]-8-oxo-5-thia-1-azabicyclo[4.2.0]oct-2-ene-2-carboxylic acid hydrochloride (2:1)]
